Laboratory results from patent US20200376146A1, “NANOBIOLOGIC COMPOSITIONS FOR INHIBITING TRAINED IMMUNITY” (ICAHN SCHOOL OF MEDICINE, priority 2017, published 2020).

Tests used:
[1] = Hydrolysis of (pro-)drugs in nanobiologics; format: physicochemical; details: 4° C. in PBS
Procedure: (Pro-)drug recovery and hydrolysis were determined using the following procedure: an aliquot (200 μL) of the particle solution was dried under vacuum, acetonitrile (600 μL) was added and the suspension was sonicated for 20 minutes. The suspension was centrifuged to precipitate any solids and the remaining solution was analyzed using HPLC; except for the malonate derivatives which were analyzed using SFC-MS, and Dimethylmalonate which was analyzed by GC-MS.

[2] = Toxicity in transplant recipients (BUN, serum creatinine, histopathology); format: in vivo, mice; details: regimens giving 100% allograft survival for 30 days
heart allograft = assay: Cardiac allograft survival (BALB/c hearts into C57BL/6 recipients); format: in vivo, mice; details: oral, 5 mg/kg every day for 15 days

CCCCCCCCCCCCCCCCCC(=O)O[C@@H]1CC[C@@H](C[C@@H](C)[C@@H]2CC(=O)[C@H](C)/C=C(\C)[C@@H](O)[C@@H](OC)C(=O)[C@H](C)C[C@H](C)/C=C/C=C/C=C(\C)[C@@H](OC)C[C@@H]3CC[C@@H](C)[C@@](O)(O3)C(=O)C(=O)N3CCCC[C@H]3C(=O)O2)C[C@H]1OC [Cis-Rapamycin, Rapamycin-C18]
hydrolysis of the (pro-)drug in the nanobiologic over time [1]: hydrolysis was observed

CO[C@H]1C[C@@H]2CC[C@@H](C)[C@@](O)(O2)C(=O)C(=O)N2CCCC[C@H]2C(=O)O[C@H]([C@H](C)C[C@@H]2CC[C@@H](O)[C@H](OC)C2)CC(=O)[C@H](C)/C=C(\C)[C@@H](O)[C@@H](OC)C(=O)[C@H](C)C[C@H](C)/C=C/C=C/C=C/1C [Rapamycin, rapamycin]
blood urea nitrogen (BUN) and serum creatinine [2]: kidney toxicity parameters show statistical differences between oral rapamycin and mTORi-HDL | allograft survival for 30 days (heart allograft): 100%
